Measured values as given in patent publication US20220023294A1, “SYNTHETIC LETHALITY AND THE TREATMENT OF CANCER” (PACYLEX PHARMACEUTICALS INC., priority 2011, published 2022).

Experiments:
[1] = test system: B cell lymphomas and T cell leukemias; assay: Cell viability assay (trypan blue exclusion) after incubation with NMT inhibitors; type: cell-based, human; settings: 24 h, increasing concentration, control adjusted to 100%
Experimental: Tris dibutylbenzinylidene acetone paladium (TrisDBA) was a kind gift of Dr. Arbiser. Cells were incubated at increasing concentrations for 24 hours with TrisDBA (or DMSO for control) or for 24 and 48 hours with DDD85646.
(§1) B and T cell viability was measured using the trypan blue exclusion method. Cells were grown in confluency conditions (2×10^6 cells/mL maximum) assuring the minimum basal apoptosis. After incubation with NMT inhibitors, about 20 000 cells (10 μL) were incubated with 10 μL of TC10™ Trypan Blue Dye (Biorad) for 15 min. Cell viability was quantified using the TC10™ automated cell counter (Biorad).
FIG. 2 depicts the sensitivity of various B cell lymphomas and T cell leukemias to the NMT inhibitors tris-dibenzylideneacetone-dipalladium (Tris-DBA). Various B and T cells were incubated for 24 h with increasing concentration of Tris DBA. Cell viability was measured using trypan blue exclusion method and adjusted to 100% for control.

NMT2 = biological target: T1, NMT2 (Homo sapiens, UniProt O60551); assay: In vitro NMT activity (peptide myristoylation) assay with purified recombinant enzyme; type: biochemical; settings: purified recombinant NMT2, radiolabeled myristoyl peptide on phosphocellulose paper
T1 construct: His (N); made in house
T1 sequence (O60551 1-498): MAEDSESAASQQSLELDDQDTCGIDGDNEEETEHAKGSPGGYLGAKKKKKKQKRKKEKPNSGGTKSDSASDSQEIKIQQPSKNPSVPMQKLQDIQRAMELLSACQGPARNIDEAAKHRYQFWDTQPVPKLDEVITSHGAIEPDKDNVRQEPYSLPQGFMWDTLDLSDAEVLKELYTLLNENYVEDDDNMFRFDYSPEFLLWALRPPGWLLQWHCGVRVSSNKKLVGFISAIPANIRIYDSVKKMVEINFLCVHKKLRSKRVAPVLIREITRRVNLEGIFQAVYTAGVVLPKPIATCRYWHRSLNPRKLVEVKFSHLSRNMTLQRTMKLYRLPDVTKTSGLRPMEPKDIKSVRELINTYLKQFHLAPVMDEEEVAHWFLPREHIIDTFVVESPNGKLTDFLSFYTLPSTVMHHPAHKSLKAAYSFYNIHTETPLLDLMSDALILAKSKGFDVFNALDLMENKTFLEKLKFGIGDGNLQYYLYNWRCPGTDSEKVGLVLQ
From the text: (§2) N-myristoyltransferase activity assay protocol was adapted from Raju, R. V., and Sharma, R. K. (1999) Preparation and assay of myristoyl-CoA:protein N-myristoyltransferase. Methods Mol Biol 116, 193-211. [^3H] myristoyl-CoA was freshly synthesized for each experiment, as previously described by Towler, D., and Glaser, L. (1986) Protein fatty acid acylation: enzymatic synthesis of an N-myristoylglycyl peptide. Proc Nal Acad Sci USA 83, 2812-2816. Briefly, cells were resuspended in 0.25 M sucrose buffer (50 mM NaH2PO4, pH 7.4) and subjected to 2 rounds of sonication at level 6.0 on a Branson Sonicator. […] Discs were washed (washing buffer: 25 mM Tris buffer, pH 7.4) to remove the residual radioactivity ([^3H]-myristate and [^3H]-myristoyl-CoA) while [^3H]-myristoyl-peptide is retained on the phosphocellulose paper. Radioactivity was quantified by liquid scintillation counting and converted into pMol of myristoylated peptide (Raju, R. V., and Sharna, R. K. (1999) Preparation and assay of myristoyl-CoA:protein N-myristoyltransferase. Methods Mol Biol 116, 193-211
(§3) NMT activity was assayed using a peptide myristoylation assay with purified recombinant NMT1 and NMT2. NMT activity was calculated from the amount of radiolabeled myristoyl peptide produced and detected on phosphocellulose paper (adapted from King et al. 1991, Anal Biochem.).

NMT1 = biological target: T2, NMT1 (Homo sapiens, UniProt P30419); assay: as above; type: biochemical; settings: purified recombinant NMT1, radiolabeled myristoyl peptide on phosphocellulose paper
T2 construct: His (N); made in house
T2 sequence (P30419 1-496): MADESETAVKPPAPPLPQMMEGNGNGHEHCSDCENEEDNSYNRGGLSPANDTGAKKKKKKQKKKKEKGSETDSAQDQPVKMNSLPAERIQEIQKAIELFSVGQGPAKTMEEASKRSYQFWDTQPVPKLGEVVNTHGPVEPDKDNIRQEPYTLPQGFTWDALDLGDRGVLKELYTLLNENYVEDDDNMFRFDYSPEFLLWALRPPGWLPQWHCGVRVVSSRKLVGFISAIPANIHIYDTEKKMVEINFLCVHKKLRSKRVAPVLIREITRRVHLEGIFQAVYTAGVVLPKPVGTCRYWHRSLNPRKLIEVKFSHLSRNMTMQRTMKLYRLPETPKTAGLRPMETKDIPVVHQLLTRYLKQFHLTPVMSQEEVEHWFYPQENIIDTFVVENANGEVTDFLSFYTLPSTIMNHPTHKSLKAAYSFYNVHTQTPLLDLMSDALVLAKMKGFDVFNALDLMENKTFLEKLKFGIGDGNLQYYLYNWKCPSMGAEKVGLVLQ
From the text: as §2, §3

Ramos B lymphoma cells = assay: Survival of Ramos cells transfected with pcDNA3.1-V5-NMT2 in the presence of TrisDBA (trypan blue exclusion); type: cell-based, human; settings: TrisDBA 5 ug/ml, 24 hours
Experimental: B cells were transfected using the Neon® transfection system (Life technologies) following manufacturer's instructions and optimized protocol for Ramos B cells transfection (pulse voltage 1,300V; pulse width 20 ms, 2 pulses and 7.7.10^6 cells/mL) adapted for 100 μL tips. Classically, two transfections were pulled to obtained enough living cells to perform a viability assay.
as §1
In this example, transfection of Ramos B lymphoma cells (which, as shown herein, expresses NMT1) with pcDNA3.1-V5-NMT2 increased survival to TrisDBA (5 ug/ml) 2.5 fold vs control cells transfected with empty plasmid vector. In FIG. 6, 20×10^6 Ramos B lymphoma cells were transfected with 32 μg of DNA (pcDNA3.1-V5-empty or pcDNA3.1-V5-NMT2) using the Neon Transfection System (Invitrogen) following the recommended protocol for Ramos cell line (1,350 Volt, 30 ms). […] After a PBS wash, cells were resuspended and grown in RPMI containing TrisDBA (5 ug/ml) for 24 hours then counted using the trypan blue exclusion method (Panel A). […]

Question: Which “Cell survival curves (sensitivity of B cell lymphomas versus other cells)” value [1] does the source give for “tris-dibenzylideneacetone-dipalladium [Tris-DBA]” here?
Answer: more sensitive

Question: And the “Inhibition of NMT activity” value (NMT2)?
Answer: inhibits NMT in vitro

Question: What about the “Inhibition of NMT activity” value (NMT1) of the same substance?
Answer: inhibits NMT in vitro

Question: And the “Increased survival of NMT2-transfected cells vs control cells transfected with empty plasmid vector” value (Ramos B lymphoma cells)?
Answer: 2.5 fold
